Data set [1] in a line: Two-chamber release test of model drugs from hydrogel laminate. It counts as physicochemical. The settings on record: for dye leakage through the laminate into the opposite chamber: absorbance at 550 nm and 630 nm in both chambers; for power law release exponent: release from hydrogel layers of the laminate into DI water, Fickian release. An excerpt: A two-chamber diffusion device was made using cast acrylic plates (McMaster Carr), and small magnetic stir bars and stir plates (VWR International) were used for stirring. For the diffusion tests, a 3cm×3 cm hydrogel, elastomer, or impermeable hydrogel laminate sample was placed between the chambers and screwed together tightly to prevent leakage from the chambers. A 5.0×10−4 M rhodamine B solution (Sigma-Aldrich R6626) was placed on one chamber while DI water was placed in the opposite chamber, and 1 mL aliquots were taken every 10 min and placed in a disposable cuvette. Absorbance was measured using a spectrophotometer (BioMate 3S, ThermoFischer Scientific) and converted to concentration using calibration curves of solutions with known concentrations. The setup for release experiments was identical except both chambers initially contained DI water with rhodamine B and green food dye (Fast green FCF, Sigma-Aldrich F7252) being released from the hydrogel. For rhodamine diffusion and release, a wavelength sweep was performed to determine the maximum absorbance, which occurred at 550 nm. The calibration curve was constructed by measuring absorbance of standard solutions in the 0-50×10−6 m range. For green food dye release, the maximum absorbance occurred at 630 nm. The calibration curve was constructed by measuring absorbance of standard solutions in the 0-200 ppm range.
Taking advantage of the impermeability of the hydrogel-elastomer laminate, the possibility of releasing different molecules from the two sides of the hydrogel sheets in the laminate was tested. Green food dye (Fast Green FCF, Sigma-Aldrich) and rhodamine B were used as model drugs and were loaded into the opposing two hydrogel sheets in the hydrogel-elastomer laminate structure. […] The concentrations of green food dye and rhodamine B in the solutions of both chambers were measured over time using absorbance measurements. […] Since the dyes used have absorbance maximums at different wavelengths (550 nm and 630 nm), it was possible to detect dye leakage through the impermeable hydrogel-elastomer laminate by monitoring the absorbance signals at the two wavelengths in both chambers.

For data set [2], the system named is Escherichi coli strain expressing green fluorescent protein. Put plainly: Bacterial adhesion testing. It counts as cell-based. The settings on record: 24 hour incubation; FIG. 4; streptomycin sulfate 0.1 wt %. From the text:
The high robustness and stretchability of the hydrogel-elastomer laminates allows for proper functioning of the devices under stresses and deformations. […] In addition, the lubricious and highly hydrated hydrogel coating surfaces provided by the present invention are capable of improving protein adsorption, anticlotting and foreign-body reaction of the device as compared to an uncoated device. Moreover, the coating protocol of the present invention can be designed to include therapeutic agents in the hydrogel coating and/or to introduce hydrogel components with known biological responses such as PEG, hyaluronic acid, and zwitterionic groups.
An engineered Escherichi coli strain expressing green fluorescent protein was cultured in a 24-well plate above 8 mm round samples of latex, glass or swollen hydrogel laminate (PAAm-ALG and PAAm-CHI, as described previously). Streptomycin sulfate (Sigma-Aldrich S9137) was added to the two laminate formulations, at a final concentration of 0.1 wt %. After incubating at 37° C. for 24 h, the samples were removed, rinsed with PBS to remove free-floating bacteria, and imaged with a fluorescent microscope (Nikon Eclipse LV100ND).

Where a name gives a salt, the structure may show the parent alone.

As to `CCN(Cc1cccc(S(=O)(=O)[O-])c1)c1ccc(C(=C2C=CC(=[N+](CC)Cc3cccc(S(=O)(=O)[O-])c3)C=C2)c2ccc(O)cc2S(=O)(=O)[O-])cc1.[Na+].[Na+]` [Green food dye, Fast Green FCF], in data set [1], the “dye leakage through the laminate into the opposite chamber” value is reported as “No green food dye was detected in the rhodamine chamber” and the “power law release exponent” value is on record as 0.5.

Regarding `[H]/N=C(/N)N[C@H]1[C@H](O)[C@@H](O)[C@H](O[C@@H]2O[C@@H](C)[C@](O)(C=O)[C@H]2O[C@@H]2O[C@@H](CO)[C@H](O)[C@@H](O)[C@@H]2NC)[C@@H](N/C(N)=N\[H])[C@@H]1O` [antibiotic, Streptomycin sulfate], the “effect on antibacterial action of the hydrogel laminates” value in data set [2] is “improve the antibacterial action”.

For the compound `CCN(CC)c1ccc2c(-c3ccccc3C(=O)O)c3ccc(=[N+](CC)CC)cc-3oc2c1` [rhodamine B], in data set [1], the “dye leakage through the laminate into the opposite chamber” value was “vice versa” and the “power law release exponent” value amounted to 0.5.
